According to patent US9242970B2 (ACTELION PHARMACEUTICALS LTD., priority 2010, dated 2016):
Where two headings read alike, the source gives them in different places.

Experiments:
human orexin-1 receptor = human orexin-1 receptor (Homo sapiens (Human), UniProt O43613); test: In vitro assay: intracellular calcium measurements (FLIPR), antagonistic activity; type: cell-based; conditions: CHO cells, 3 nM orexin-A, marked values are geometric means of n = 2-6, read-out: IC50 OX1
human orexin-2 receptor = human orexin-2 receptor (Homo sapiens (Human), UniProt O43614); test: as above; type: cell-based; conditions: CHO cells, 3 nM orexin-A, marked values are geometric means of n = 2-6, read-out: IC50 OX2
[1] = compound incubation time of 10 min

human orexin-1 receptor, sequence (O43613 whole entry): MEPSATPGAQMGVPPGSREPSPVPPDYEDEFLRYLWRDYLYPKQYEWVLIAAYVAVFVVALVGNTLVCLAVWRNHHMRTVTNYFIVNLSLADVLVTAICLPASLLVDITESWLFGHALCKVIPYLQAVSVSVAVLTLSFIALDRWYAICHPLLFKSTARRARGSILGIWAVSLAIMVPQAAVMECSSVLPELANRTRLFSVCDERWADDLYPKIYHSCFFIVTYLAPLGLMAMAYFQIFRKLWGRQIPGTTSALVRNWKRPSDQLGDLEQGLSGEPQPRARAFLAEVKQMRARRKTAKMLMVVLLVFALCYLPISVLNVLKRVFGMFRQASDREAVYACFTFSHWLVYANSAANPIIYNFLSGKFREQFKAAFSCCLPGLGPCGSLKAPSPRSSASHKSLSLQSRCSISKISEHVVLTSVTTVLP
human orexin-2 receptor, sequence (O43614 whole entry): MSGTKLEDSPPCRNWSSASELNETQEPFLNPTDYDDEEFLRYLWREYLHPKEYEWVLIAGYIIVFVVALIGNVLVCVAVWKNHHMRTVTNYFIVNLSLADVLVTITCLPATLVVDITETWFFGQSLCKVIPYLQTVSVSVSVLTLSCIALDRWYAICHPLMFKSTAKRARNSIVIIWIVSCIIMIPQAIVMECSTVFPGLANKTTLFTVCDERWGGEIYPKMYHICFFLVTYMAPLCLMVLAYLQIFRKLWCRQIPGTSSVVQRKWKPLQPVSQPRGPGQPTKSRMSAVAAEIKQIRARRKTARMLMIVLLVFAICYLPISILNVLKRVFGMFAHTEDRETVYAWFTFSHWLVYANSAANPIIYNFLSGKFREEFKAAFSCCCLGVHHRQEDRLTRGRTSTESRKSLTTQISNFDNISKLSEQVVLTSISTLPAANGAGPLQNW

COc1cccc(OC)c1C1CC(C)C(=O)N1Cc1cccc(-c2ccccc2)n1 (stereo not shown) [Example 138, 5-(2,6-dimethoxyphenyl)-3-methyl-1-((6-phenylpyridin-2-yl)methyl)pyrrolidin-2-one]
IC50 (human orexin-1 receptor; compound incubation 120 min): 32 nM
IC50 (human orexin-2 receptor; compound incubation 120 min): 29 nM

COc1cccc(OC)c1C1CC(C)C(=O)N1Cc1ccnc(-c2ccccc2)c1 (stereo not shown) [Example 139, 5-(2,6-dimethoxyphenyl)-3-methyl-1-((2-phenylpyridin-4-yl)methyl)pyrrolidin-2-one]
IC50 (human orexin-1 receptor; compound incubation 120 min): 35 nM
IC50 (human orexin-2 receptor; compound incubation 120 min): 172 nM

COc1cccc(OC)c1C1CC(C)C(=O)N1Cc1cccc(-c2ccccn2)c1 (stereo not shown) [Example 140, 5-(2,6-dimethoxyphenyl)-3-methyl-1-(3-(pyridin-2-yl)benzyl)pyrrolidin-2-one]
IC50 (human orexin-1 receptor; compound incubation 120 min): 10 nM
IC50 (human orexin-2 receptor; compound incubation 120 min): 73 nM

COc1cccc(OC)c1C1CC(C)C(=O)N1Cc1cccc(-c2cccnc2)c1 (stereo not shown) [Example 141, 5-(2,6-dimethoxyphenyl)-3-methyl-1-(3-(pyridin-3-yl)benzyl)pyrrolidin-2-one]
IC50 (human orexin-1 receptor; compound incubation 120 min): 35 nM
IC50 (human orexin-2 receptor; compound incubation 120 min): 28 nM

COc1cccc(OC)c1C1CC(C)C(=O)N1Cc1cccc(-c2ncccn2)c1 (stereo not shown) [Example 142, 5-(2,6-dimethoxyphenyl)-3-methyl-1-(3-(pyrimidin-2-yl)benzyl)pyrrolidin-2-one]
IC50 (human orexin-1 receptor; compound incubation 120 min): 11 nM
IC50 (human orexin-2 receptor; compound incubation 120 min): 40 nM

COc1cccc(OC)c1C1CC(C)C(=O)N1Cc1cccc(-c2noc(C)n2)c1 (stereo not shown) [Example 143, 5-(2,6-dimethoxyphenyl)-3-methyl-1-(3-(5-methyl-1,2,4-oxadiazol-3-yl)benzyl)pyrrolidin-2-one]
IC50 (human orexin-1 receptor; compound incubation 120 min): 27 nM
IC50 (human orexin-2 receptor; compound incubation 120 min): 46 nM

COc1cccc(OC)c1C1CC(C)C(=O)N1Cc1cnn(-c2ccccc2)c1 (stereo not shown) [Example 144, 5-(2,6-dimethoxyphenyl)-3-methyl-1-((1-phenyl-1H-pyrazol-4-yl)methyl)pyrrolidin-2-one]
IC50 (human orexin-1 receptor; compound incubation 120 min): 223 nM
IC50 (human orexin-2 receptor; compound incubation 120 min): 318 nM

COc1cccc(OC)c1C1CC(C)C(=O)N1Cc1csc(-c2ccccc2)n1 (stereo not shown) [Example 145, 5-(2,6-dimethoxyphenyl)-3-methyl-1-((2-phenylthiazol-4-yl)methyl)pyrrolidin-2-one]
IC50 (human orexin-1 receptor; compound incubation 120 min): 28 nM
IC50 (human orexin-2 receptor; compound incubation 120 min): 54 nM

COc1cccc(OC)c1C1CC(C)C(=O)N1Cc1cccc(-c2ccccn2)c1F (stereo not shown) [Example 146, 5-(2,6-dimethoxyphenyl)-1-(2-fluoro-3-(pyridin-2-yl)benzyl)-3-methylpyrrolidin-2-one]
IC50 (human orexin-1 receptor; compound incubation 120 min): 39 nM
IC50 (human orexin-2 receptor; compound incubation 120 min): 230 nM

COc1cccc(OC)c1C1CC(C)C(=O)N1Cc1cccc(-c2cncs2)c1 (stereo not shown) [Example 147, 5-(2,6-dimethoxyphenyl)-3-methyl-1-(3-(thiazol-5-yl)benzyl)pyrrolidin-2-one]
IC50 (human orexin-1 receptor; compound incubation 120 min): 20 nM
IC50 (human orexin-2 receptor; compound incubation 120 min): 114 nM

COc1cccc(OC)c1C1CC(C)C(=O)N1Cc1cccc(-c2ncc(C)s2)c1 (stereo not shown) [Example 148, 5-(2,6-dimethoxyphenyl)-3-methyl-1-(3-(5-methylthiazol-2-yl)benzyl)pyrrolidin-2-one]
IC50 (human orexin-1 receptor; compound incubation 120 min): 3 nM
IC50 (human orexin-2 receptor; compound incubation 120 min): 21 nM

COc1cccc(OC)c1C1CC(C)C(=O)N1Cc1cccc(-n2nccn2)c1 (stereo not shown) [Example 149, 1-(3-(2H-1,2,3-triazol-2-yl)benzyl)-5-(2,6-dimethoxyphenyl)-3-methylpyrrolidin-2-one]
IC50 (human orexin-1 receptor; compound incubation 120 min): 6 nM
IC50 (human orexin-2 receptor; compound incubation 120 min): 77 nM

COc1cccc(OC)c1C1CC(C)C(=O)N1Cc1cccc(-c2cscn2)c1 (stereo not shown) [Example 150, 5-(2,6-dimethoxyphenyl)-3-methyl-1-(3-(thiazol-4-yl)benzyl)pyrrolidin-2-one]
IC50 (human orexin-1 receptor; compound incubation 120 min): 7 nM
IC50 (human orexin-2 receptor; compound incubation 120 min): 47 nM

COc1cccc(OC)c1C1CC(C)C(=O)N1Cc1ccc2nc(C)sc2c1 (stereo not shown) [Example 151, 5-(2,6-dimethoxyphenyl)-3-methyl-1-((2-methylbenzo[d]thiazol-6-yl)methyl)pyrrolidin-2-one]
IC50 (human orexin-1 receptor; compound incubation 120 min): 125 nM
IC50 (human orexin-2 receptor; compound incubation 120 min): 703 nM

COc1cccc(OC)c1C1CC(C)C(=O)N1Cc1cc(Cl)cc(-c2ccccn2)c1 (stereo not shown) [Example 152, 1-(3-chloro-5-(pyridin-2-yl)benzyl)-5-(2,6-dimethoxyphenyl)-3-methylpyrrolidin-2-one]
IC50 (human orexin-1 receptor; compound incubation 120 min): 74 nM
IC50 (human orexin-2 receptor; compound incubation 120 min): 270 nM

COc1cccc(OC)c1C1CC(C)C(=O)N1Cc1ccc(F)c(-c2ccccn2)c1 (stereo not shown) [Example 153, 5-(2,6-dimethoxyphenyl)-1-(4-fluoro-3-(pyridin-2-yl)benzyl)-3-methylpyrrolidin-2-one]
IC50 (human orexin-1 receptor; compound incubation 120 min): 8 nM
IC50 (human orexin-2 receptor; compound incubation 120 min): 122 nM

COc1cccc(OC)c1C1CC(C)C(=O)N1Cc1ccnc(-n2cccn2)c1 (stereo not shown) [Example 154, 1-((2-(1H-pyrazol-1-yl)pyridin-4-yl)methyl)-5-(2,6-dimethoxyphenyl)-3-methylpyrrolidin-2-one]
IC50 (human orexin-1 receptor; compound incubation 120 min): 10 nM
IC50 (human orexin-2 receptor; compound incubation 120 min): 204 nM

COc1cccc(OC)c1C1CC(C)C(=O)N1Cc1cccc(-n2cccn2)n1 (stereo not shown) [Example 155, 1-((6-(1H-pyrazol-1-yl)pyridin-2-yl)methyl)-5-(2,6-dimethoxyphenyl)-3-methylpyrrolidin-2-one]
IC50 (human orexin-1 receptor; compound incubation 120 min): 134 nM
IC50 (human orexin-2 receptor; compound incubation 120 min): 1180 nM

COc1cccc(OC)c1C1CCCC(=O)N1Cc1ccc(OC(F)(F)F)cc1 (stereo not shown) [Example 156, 6-(2,6-dimethoxyphenyl)-1-(4-(trifluoromethoxy)benzyl)piperidin-2-one]
IC50 (human orexin-1 receptor; [1]): 259 nM
IC50 (human orexin-2 receptor; [1]): 22 nM

COc1cccc(OC)c1C1CCCC(=O)N1Cc1ccc(F)cc1 (stereo not shown) [Example 157, 6-(2,6-dimethoxyphenyl)-1-(4-fluorobenzyl)piperidin-2-one]
IC50 (human orexin-1 receptor; [1]): 1460 nM
IC50 (human orexin-2 receptor; [1]): 231 nM

COc1cccc(OC)c1C1CCCC(=O)N1Cc1ccc(Cl)cc1 (stereo not shown) [Example 158, 1-(4-chlorobenzyl)-6-(2,6-dimethoxyphenyl)piperidin-2-one]
IC50 (human orexin-1 receptor; [1]): 702 nM
IC50 (human orexin-2 receptor; [1]): 154 nM

COc1ccc(CN2C(=O)CCCC2c2c(OC)cccc2OC)cc1 (stereo not shown) [Example 159, 6-(2,6-dimethoxyphenyl)-1-(4-methoxybenzyl)piperidin-2-one]
IC50 (human orexin-1 receptor; [1]): 684 nM
IC50 (human orexin-2 receptor; [1]): 397 nM

COc1cccc(OC)c1C1CCCC(=O)N1Cc1ccc(OC(F)(F)F)c(F)c1 (stereo not shown) [Example 160, 6-(2,6-dimethoxyphenyl)-1-(3-fluoro-4-(trifluoromethoxy)benzyl)piperidin-2-one]
IC50 (human orexin-1 receptor; [1]): 238 nM
IC50 (human orexin-2 receptor; [1]): 18 nM

COc1cccc(OC)c1C1CCCC(=O)N1Cc1ccc(OC(F)(F)F)c(Cl)c1 (stereo not shown) [Example 161, 1-(3-chloro-4-(trifluoromethoxy)benzyl)-6-(2,6-dimethoxyphenyl)piperidin-2-one]
IC50 (human orexin-1 receptor; [1]): 147 nM
IC50 (human orexin-2 receptor; [1]): 62 nM

COc1cccc(OC)c1C1CCCC(=O)N1Cc1ccc(SC(F)(F)F)cc1 (stereo not shown) [Example 162, 6-(2,6-dimethoxyphenyl)-1-(4-((trifluoromethyl)thio)benzyl)piperidin-2-one]
IC50 (human orexin-1 receptor; [1]): 1310 nM
IC50 (human orexin-2 receptor; [1]): 62 nM

COc1cccc(OC)c1C1CCCC(=O)N1Cc1ccc(C(F)(F)F)cc1 (stereo not shown) [Example 163, 6-(2,6-dimethoxyphenyl)-1-(4-(trifluoromethyl)benzyl)piperidin-2-one]
IC50 (human orexin-1 receptor; [1]): 1190 nM
IC50 (human orexin-2 receptor; [1]): 171 nM

COc1cccc(OC)c1C1CCCC(=O)N1Cc1ccc(Oc2ccccc2)cc1 (stereo not shown) [Example 164, 6-(2,6-dimethoxyphenyl)-1-(4-phenoxybenzyl)piperidin-2-one]
IC50 (human orexin-1 receptor; [1]): 409 nM
IC50 (human orexin-2 receptor; [1]): 27 nM

COc1cccc(OC)c1C1CCCC(=O)N1Cc1ccc(OC(F)F)cc1 (stereo not shown) [Example 165, 1-(4-(difluoromethoxy)benzyl)-6-(2,6-dimethoxyphenyl)piperidin-2-one]
IC50 (human orexin-1 receptor; [1]): 224 nM
IC50 (human orexin-2 receptor; [1]): 31 nM

COc1cccc(OC)c1C1CCCC(=O)N1Cc1ccc2c(c1)OCO2 (stereo not shown) [Example 166, 1-(benzo[d][1,3]dioxol-5-ylmethyl)-6-(2,6-dimethoxyphenyl)piperidin-2-one]
IC50 (human orexin-1 receptor; [1]): 1720 nM
IC50 (human orexin-2 receptor; [1]): 549 nM

COc1cc(Cl)cc(OC)c1C1CCCC(=O)N1Cc1ccc(OC(F)(F)F)cc1 (stereo not shown) [Example 167, 6-(4-chloro-2,6-dimethoxyphenyl)-1-(4-(trifluoromethoxy)benzyl)piperidin-2-one]
IC50 (human orexin-1 receptor; [1]): 231 nM
IC50 (human orexin-2 receptor; [1]): 28 nM

COc1cccc(OC)c1C1CCCC(=O)N1Cc1ccc(-n2cccn2)cc1 (stereo not shown) [Example 168, 1-(4-(1H-pyrazol-1-yl)benzyl)-6-(2,6-dimethoxyphenyl)piperidin-2-one]
IC50 (human orexin-1 receptor; [1]): 1820 nM
IC50 (human orexin-2 receptor; [1]): 453 nM

COc1cccc(OC)c1C1CCCC(=O)N1Cc1ccc(-n2cccc2)cc1 (stereo not shown) [Example 169, 1-(4-(1H-pyrrol-1-yl)benzyl)-6-(2,6-dimethoxyphenyl)piperidin-2-one]
IC50 (human orexin-1 receptor; [1]): 1590 nM
IC50 (human orexin-2 receptor; [1]): 190 nM

COc1cccc(OC)c1C1CCCC(=O)N1Cc1ccc2nonc2c1 (stereo not shown) [Example 170, 1-(benzo[c][1,2,5]oxadiazol-5-ylmethyl)-6-(2,6-dimethoxyphenyl)piperidin-2-one]
IC50 (human orexin-1 receptor; [1]): 2390 nM
IC50 (human orexin-2 receptor; [1]): 766 nM

COc1ccc2cc(CN3C(=O)CCCC3c3c(OC)cccc3OC)ccc2c1 (stereo not shown) [Example 171, 6-(2,6-dimethoxyphenyl)-1-((6-methoxynaphthalen-2-yl)methyl)piperidin-2-one]
IC50 (human orexin-1 receptor; [1]): 122 nM
IC50 (human orexin-2 receptor; [1]): 66 nM

COc1cc(OC)c(C2CCCC(=O)N2Cc2ccc(OC(F)(F)F)cc2)c(OC)c1 (stereo not shown) [Example 172, 1-(4-(trifluoromethoxy)benzyl)-6-(2,4,6-trimethoxyphenyl)piperidin-2-one]
IC50 (human orexin-1 receptor; [1]): 330 nM
IC50 (human orexin-2 receptor; [1]): 106 nM

COc1cccc(OC)c1C1CC(C)CC(=O)N1Cc1ccc(OC(F)(F)F)cc1 (stereo not shown) [Example 173, 6-(2,6-dimethoxyphenyl)-4-methyl-1-(4-(trifluoromethoxy)benzyl)piperidin-2-one]
IC50 (human orexin-1 receptor; [1]): 537 nM
IC50 (human orexin-2 receptor; [1]): 297 nM

COc1cccc(OC)c1C1CC(C)(C)CC(=O)N1Cc1ccc(OC(F)(F)F)cc1 (stereo not shown) [Example 174, 6-(2,6-dimethoxyphenyl)-4,4-dimethyl-1-(4(trifluoromethoxy)benzyl)piperidin-2-one]
IC50 (human orexin-1 receptor; [1]): 1800 nM
IC50 (human orexin-2 receptor; [1]): 1080 nM

COc1cccc(OC)c1C1CCCC(=O)N1Cc1cccc(OC(F)(F)F)c1 (stereo not shown) [Example 175, 6-(2,6-dimethoxyphenyl)-1-(3-(trifluoromethoxy)benzyl)piperidin-2-one]
IC50 (human orexin-1 receptor; [1]): 136 nM
IC50 (human orexin-2 receptor; [1]): 94 nM
